The test system of one assay is COLO 205. The experiment in a line: cells. To be noted: Homo sapiens, COLO 205, 72 h, read-out: In Vitro Cellular IC50 COLO 205.
The subject of the next assay is MV-4-11. The experiment in a line: cells. To be noted: Homo sapiens, MV4-11, 72 h, read-out: In Vitro Cellular IC50 MV-4-11.
Another assay has as its system MCF7. The experiment in a line: Anti-proliferative assay (cellular IC50), MCF7. To be noted: Homo sapiens, MCF7, 72 h, read-out: In Vitro Cellular IC50 MCF7.
The subject of the next assay is K-562. The experiment in a line: Anti-proliferative assay (cellular IC50), K-562. The note with it: Homo sapiens, K562, 72 h, read-out: In Vitro Cellular IC50 K-562.
Assay [1] addresses HDAC (HeLa nuclear extracts). The experiment in a line: HDAC enzyme assay, HeLa nuclear extracts. The note with it: read-out: In Vitro Enzymatic IC50 HDAC (HeLa).
For the next assay, the system named is PC-3. The experiment in a line: Anti-proliferative assay (cellular IC50), PC-3. To be noted: Homo sapiens, PC-3, 72 h, read-out: In Vitro Cellular IC50 PC-3.

By IC50 is commonly meant the concentration needed to halve the response being measured.

The structures appear in SMILES notation.

Take `Cc1c(CN2CCN(C(=O)[C@H](C)O)CC2)sc2c(N3CCOCC3)nc(-c3cnc(N)nc3)nc12` [GDC-0980, reference compound]: the IC50 in the assay on COLO 205 was under 500 nM; in the assay with MV-4-11 it was over 10000 nM; in the assay on MCF7 it was 2000 to 10000 nM; in the assay on K-562 it was 2000 to 10000 nM.
As for `CC(C)n1cnc2c(-c3cccc(NC(=O)CCCCCCCC(=O)NO)c3)nc(N3CCOCC3)nc21` [compound 8, N^1-hydroxy-N^9-(3-(9-isopropyl-2-morpholino-9H-purin-6-yl)phenyl)nonanediamide], the IC50 in assay [1] fell in the range of 10 to 100 nM.
For the molecule `CC(C)n1cnc2c(-c3cccc(NC(=O)CCCC(=O)NO)c3)nc(N3CCOCC3)nc21` [compound 9, N^1-hydroxy-N^5-(3-(9-isopropyl-2-morpholino-9H-purin-6-yl)phenyl)glutaramide], in assay [1], the IC50 was 100 to 1000 nM.
With `CC(C)n1cnc2c(-c3cccc(OCCCCCC(=O)NO)c3)nc(N3CCOCC3)nc21` [compound 11, N-hydroxy-6-(3-(9-isopropyl-2-morpholino-9H-purin-6-yl)phenoxy)hexanamide], the IC50 in assay [1] was 10 to 100 nM.
The same measure, in the same setting: then `CC(C)n1cnc2c(-c3cccc(OCCCCCCC(=O)NO)c3)nc(N3CCOCC3)nc21` [compound 12, N-hydroxy-7-(3-(9-isopropyl-2-morpholino-9H-purin-6-yl)phenoxy)heptanamide], with 10 to 100 nM; and `CC(C)n1cnc2c(-c3ccc(OCCCC(=O)NO)cc3)nc(N3CCOCC3)nc21` [compound 13, N-hydroxy-4-(4-(9-isopropyl-2-morpholino-9H-purin-6-yl)phenoxy)butanamide], with 1000 to 10000 nM.
For `CC(C)n1cnc2c(-c3ccc(OCCCCC(=O)NO)cc3)nc(N3CCOCC3)nc21` [compound 14, N-hydroxy-5-(4-(9-isopropyl-2-morpholino-9H-purin-6-yl)phenoxy)pentanamide], the IC50 in assay [1] fell in the range of 100 to 1000 nM.
On the same count and under the same terms, then `CC(C)n1cnc2c(-c3ccc(OCCCCCC(=O)NO)cc3)nc(N3CCOCC3)nc21` [compound 15, N-hydroxy-6-(4-(9-isopropyl-2-morpholino-9H-purin-6-yl)phenoxy)hexanamide], with 100 to 1000 nM.
In the case of `CC(C)n1cnc2c(-c3ccc(OCCCCCCC(=O)NO)cc3)nc(N3CCOCC3)nc21` [compound 16, N-hydroxy-7-(4-(9-isopropyl-2-morpholino-9H-purin-6-yl)phenoxy)heptanamide], in assay [1], the IC50 fell in the range of 100 to 1000 nM.
In the case of `CC(C)n1cnc2c(-c3ccc(COCCCCC(=O)NO)cc3)nc(N3CCOCC3)nc21` [compound 20, N-hydroxy-5-((4-(9-isopropyl-2-morpholino-9H-purin-6-yl)benzyl)oxy)pentanamide], the IC50 in assay [1] lay in the range of 100 to 1000 nM.
Consider `CC(C)n1cnc2c(-c3ccc(COCCCCCC(=O)NO)cc3)nc(N3CCOCC3)nc21` [compound 21, N-hydroxy-6-((4-(9-isopropyl-2-morpholino-9H-purin-6-yl)benzyl)oxy)hexanamide], for which the IC50 in assay [1] lay within 100 to 1000 nM.
With `CC(C)n1cnc2c(-c3ccc(COCCCCCCC(=O)NO)cc3)nc(N3CCOCC3)nc21` [compound 22, N-hydroxy-7-((4-(9-isopropyl-2-morpholino-9H-purin-6-yl)benzyl)oxy)heptanamide], the IC50 in assay [1] lay in the range of 1000 to 10000 nM.
Still for that read-out and setting: then `CC(C)n1cnc2c(-c3ccc(COCC(=O)NO)cc3)nc(N3CCOCC3)nc21` [compound 32, N-hydroxy-2-((4-(9-isopropyl-2-morpholino-9H-purin-6-yl)benzyl)oxy)acetamide], with 1000 to 10000 nM; and `CC(C)n1cnc2c(-c3ccc(OCC(=O)NO)cc3)nc(N3CCOCC3)nc21` [compound 33, N-hydroxy-2-(4-(9-isopropyl-2-morpholino-9H-purin-6-yl)phenoxy)acetamide], with 1000 to 10000 nM.
As for `CC(C)n1cnc2c(-c3cccc(CN4CCC(C(=O)NO)CC4)c3)nc(N3CCOCC3)nc21` [compound 34, N-hydroxy-1-(3-(9-isopropyl-2-morpholino-9H-purin-6-yl)benzyl)piperidine-4-carboxamide], the IC50 in assay [1] lay within 1000 to 10000 nM.
As for `CC(C)n1cnc2c(-c3cccc(CNCc4ccc(C(=O)NO)cc4)c3)nc(N3CCOCC3)nc21` [compound 35, N-hydroxy-4-(((3-(9-isopropyl-2-morpholino-9H-purin-6-yl)benzyl)amino)methyl)benzamide], in assay [1], the IC50 lay in the range of 100 to 1000 nM.
Take `CC(C)n1cnc2c(-c3cccc(CNCCCCCC(=O)NO)c3)nc(N3CCOCC3)nc21` [compound 36, N-hydroxy-6-((3-(9-isopropyl-2-morpholino-9H-purin-6-yl)benzyl)amino)hexanamide]: the IC50 in assay [1] is 10 to 100 nM.
For the molecule `CC(C)n1cnc2c(-c3cccc(COCC(=O)NO)c3)nc(N3CCOCC3)nc21` [compound 42, N-hydroxy-2-((3-(9-isopropyl-2-morpholino-9H-purin-6-yl)benzyl)oxy)acetamide], in assay [1], the IC50 lay within 100 to 1000 nM.
In the case of `COc1ccc(-c2nc(N3CCOCC3)c3ncn(CCCCC(=O)NO)c3n2)cn1` [compound 58, N-hydroxy-5-(2-(6-methoxypyridin-3-yl)-6-morpholino-9H-purin-9-yl)pentanamide], the IC50 with COLO 205 was 2000 to 10000 nM; in assay [1], 100 to 1000 nM; with MV-4-11, 500 to 2000 nM; in the assay with K-562 it was 2000 to 10000 nM.
`Nc1ccc(-c2nc(N3CCOCC3)c3ncn(CCCCC(=O)NO)c3n2)cn1` [compound 59, 5-(2-(6-aminopyridin-3-yl)-6-morpholino-9H-purin-9-yl)-N-hydroxypentanamide]: the IC50 in the assay on COLO 205 was over 10000 nM; in assay [1], 1000 to 10000 nM; in the assay with MV-4-11, 500 to 2000 nM; with K-562 it was over 10000 nM.
`CC(C)n1cnc2c(-c3ccc(F)c(OCCCC(=O)NO)c3)nc(N3CCCC3)nc21` [compound 63, 4-(2-fluoro-5-(9-isopropyl-2-(pyrrolidin-1-yl)-9H-purin-6-yl)phenoxy)-N-hydroxybutanamide]: the IC50 was 2000 to 10000 nM in the assay on COLO 205, 2000 to 10000 nM in the assay with PC-3, 10 to 100 nM in assay [1] and 500 to 2000 nM with MV-4-11.
In the case of `O=C(CCCCCn1cnc2c(N3CCOCC3)nc(-c3ccc(F)c(OCCO)c3)nc21)NO` [compound 65, 6-(2-(4-fluoro-3-(2-hydroxyethoxy)phenyl)-6-morpholino-9H-purin-9-yl)-N-hydroxyhexanamide], the IC50 in the assay with COLO 205 is over 10000 nM; with PC-3, over 10000 nM; in assay [1] it was under 10 nM; in the assay on MV-4-11 it was over 10000 nM.
As to `CCCn1cnc2c(-c3ccc(F)c(OCCCC(=O)NO)c3)nc(N3CCCC3)nc21` [compound 66, 4-(2-fluoro-5-(9-propyl-2-(pyrrolidin-1-yl)-9H-purin-6-yl)phenoxy)-N-hydroxybutanamide], the IC50 is 2000 to 10000 nM in the assay on COLO 205, 2000 to 10000 nM in the assay with PC-3, 100 to 1000 nM in assay [1] and 500 to 2000 nM in the assay on MV-4-11.
Regarding `CCn1cnc2c(-c3ccc(F)c(OCCCC(=O)NO)c3)nc(N3CCOCC3)nc21` [compound 68, 4-(5-(9-ethyl-2-morpholino-9H-purin-6-yl)-2-fluorophenoxy)-N-hydroxybutanamide], the IC50 in the assay with COLO 205 was in the range of 2000 to 10000 nM; in the assay with PC-3 it was 2000 to 10000 nM; in assay [1], 100 to 1000 nM; in the assay on MV-4-11, 500 to 2000 nM.
For `CCCn1cnc2c(-c3ccc(F)c(OCCCC(=O)NO)c3)nc(N3CCOCC3)nc21` [compound 69, 4-(2-fluoro-5-(2-morpholino-9-propyl-9H-purin-6-yl)phenoxy)-N-hydroxybutanamide], the IC50 with COLO 205 lay in the range of 2000 to 10000 nM; with PC-3, 2000 to 10000 nM; in assay [1], 100 to 1000 nM; with MV-4-11, 500 to 2000 nM.
With `CCn1c(CN(C)Cc2ccc(/C=C/C(=O)NO)cc2)nc2c(N3CCOCC3)nc(-c3ccc(OC)nc3)nc21` [compound 93, (E)-3-(4-((((9-ethyl-2-(6-methoxypyridin-3-yl)-6-morpholino-9H-purin-8-yl)methyl)(methyl)amino)methyl)phenyl)-N-hydroxyacrylamide], the IC50 lay within 2000 to 10000 nM in the assay with COLO 205; 2000 to 10000 nM in the assay with PC-3; 1000 to 10000 nM in assay [1]; 500 to 2000 nM in the assay with MV-4-11; 2000 to 10000 nM in the assay with MCF7; 2000 to 10000 nM in the assay on K-562.
For `CCn1c(CN(C)Cc2ccc(/C=C/C(=O)NO)cc2)nc2c(N3CCOCC3)nc(-c3ccc(NS(C)(=O)=O)cc3)nc21` [compound 94, (E)-3-(4-((((9-ethyl-2-(4-(methylsulfonamido)phenyl)-6-morpholino-9H-purin-8-yl)methyl)(methyl)amino)methyl)phenyl)-N-hydroxyacrylamide], the IC50 with COLO 205 was 2000 to 10000 nM; in assay [1], 100 to 1000 nM; with MV-4-11, 500 to 2000 nM; with K-562, 2000 to 10000 nM.
In the case of `CCn1c(CN(C)Cc2ccc(/C=C/C(=O)NO)cc2)nc2c(N3CCOCC3)nc(Cl)nc21` [compound 95, (E)-3-(4-((((2-chloro-9-ethyl-6-morpholino-9H-purin-8-yl)methyl)(methyl)amino)methyl)phenyl)-N-hydroxyacrylamide], the IC50 is over 10000 nM in the assay with COLO 205, 100 to 1000 nM in assay [1], 500 to 2000 nM in the assay on MV-4-11 and 2000 to 10000 nM with K-562.
Turning to `O=C(CCCCCCn1cnc2c(N3CCCC3)nc(N3CCCC3)nc21)NO` [compound 99, 7-(2,6-di(pyrrolidin-1-yl)-9H-purin-9-yl)-N-hydroxyheptanamide], the IC50 in the assay with COLO 205 is 2000 to 10000 nM; in the assay on PC-3 it was 2000 to 10000 nM; in assay [1], under 10 nM; in the assay with MV-4-11 it was 500 to 2000 nM.

For the origin of these results see patent US9957270B2, “Fused pyrimidine-based hydroxamate derivatives” (Agency for Science, Technology and Research, priority 2014, dated 2018).
